Read-outs that look alike come from different tables or passages of the source.

Assay [1] deals with THP1-Dual cells (ISG54 promoter Lucia luciferase reporter). Kind of assay: THP-1 Dual Lucia Reporter Gene Assay. It counts as cell-based, human. The settings on record: Lucia luciferase signal induction, 20 hours at 37° C., read-out: Cellular THP 1 EC50. The protocol:
THP1-Dual™ cells (InvivoGen #thpd-nfis) were derived from the human THP-1 monocyte cell line by stable integration of the Lucia luciferase gene, a secreted luciferase reporter gene, under the control of an ISG54 (interferon-stimulated gene) minimal promoter in conjunction with five interferon (IFN)-stimulated response elements. […] The cell plates were dosed with 62.5 nL of the testing compounds, and then incubated at 37° C. for 20 hours. At the end of the incubation, 15 μL/well of the QUANTI-Luc™ (InvivoGen #rep-q1c1) were added, and luminescence was measured immediately using the LeadSeeker.
Compound concentration versus percent signal induction curves were fitted to generate EC50 values.

The target in assay [2] is Human STING (residues 140-379, H232R) (Homo sapiens (Human), UniProt Q86WV6, H232R). Briefly: Human STING TR-FRET Assay. The following applies: read-out: Enz-TR-Fret IC50, fluorescein labeled ligand 100 nM, STING protein 100 nM, 60 minutes at rt. (In general: In TR-FRET formats the signal depends on donor and acceptor labels being close together.)
Sequence of Human STING (residues 140-379, H232R) (Q86WV6 140-379 H232R): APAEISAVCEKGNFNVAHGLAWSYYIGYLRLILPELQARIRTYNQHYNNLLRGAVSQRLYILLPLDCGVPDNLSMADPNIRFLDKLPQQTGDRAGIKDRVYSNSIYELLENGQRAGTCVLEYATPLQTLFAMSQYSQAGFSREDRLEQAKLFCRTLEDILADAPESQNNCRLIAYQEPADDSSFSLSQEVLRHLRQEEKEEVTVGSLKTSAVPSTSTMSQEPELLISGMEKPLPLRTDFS
Procedure: The sequence was verified before recombinant protein expression using E. coli expression system.
For expression, STING expression vector was transformed into BL21(DE3) cells. The expression was induced by adding IPTG and expressing in 16° C. for 20 hours.
Biotinylation was confirmed by Mass Spectrometry analysis.
Then 2 uL STING assay buffer containing STING protein (100 nM final) was added and the mixture was incubated at rt for 60 minutes. The plates were then read on a BMG PheraStar Plus reader (LanthaScreen module).
For the assay method described above, test compound percent inhibition, at various concentrations, was calculated relative to untreated and DMSO only treated samples. Compound concentration versus percent inhibition curves were fitted to generate IC50 values.

For orientation: EC50 means the concentration that produces a half-maximal response. The term IC50 denotes the concentration that gives 50% inhibition. For `Nc1nc2c(ncn2[C@@H]2O[C@@H]3COP(=O)(S)O[C@@H]4[C@@H](COP(=O)(S)O[C@@H]2[C@@H]3O)C[C@@H](Oc2ccncn2)[C@@H]4F)c(=O)[nH]1` (single isomer, unassigned) [Compound I-39a], the EC50 in assay [1] (Homo sapiens, THP1-Dual, 20 h) was in the range of 1000 to 10000 nM. In addition, the IC50 in assay [2] was below 1000 nM.
As to `Nc1nc2c(ncn2[C@@H]2O[C@@H]3COP(=O)(S)O[C@@H]4[C@@H](COP(=O)(S)O[C@@H]2[C@@H]3O)C[C@@H](Oc2ccncn2)[C@@H]4F)c(=O)[nH]1` (single isomer, unassigned) [Compound I-39b], in assay [1], the EC50 is below 1000 nM. For the same compound, the concentration for half-maximal inhibition (IC50) in assay [2] was below 1000 nM.
`Nc1nc2c(ncn2[C@@H]2O[C@@H]3COP(=O)(O)O[C@@H]4[C@@H](COP(=O)(S)O[C@@H]2[C@@H]3O)C[C@@H](Nc2ncncn2)[C@@H]4F)c(=O)[nH]1` (single isomer, unassigned) [Compound I-42]: the EC50 in assay [1] (Homo sapiens, THP1-Dual, 20 h) fell in the range of 1000 to 10000 nM. Further, the IC50 in assay [2] is below 1000 nM.
Regarding `Nc1nc2c(ncn2[C@@H]2O[C@@H]3COP(=O)(S)O[C@@H]4[C@@H](COP(=O)(O)O[C@@H]2[C@@H]3O)C[C@@H](Nc2ncncn2)[C@@H]4F)c(=O)[nH]1` (single isomer, unassigned) [Compound I-43], in assay [1] (Homo sapiens, THP1-Dual, 20 h), the EC50 lay within 1000 to 10000 nM.
For the compound `Nc1nc2c(ncn2[C@@H]2O[C@@H]3COP(=O)(S)O[C@@H]4[C@@H](COP(=O)(S)O[C@@H]2[C@@H]3O)C[C@@H](Nc2ncncn2)[C@@H]4F)c(=O)[nH]1` (single isomer, unassigned) [Compound I-45], the EC50 in assay [1] (Homo sapiens, THP1-Dual, 20 h) is 1000 to 10000 nM. The IC50 in assay [2] was below 1000 nM.
The matching figures for `Nc1nc2c(ncn2[C@@H]2O[C@@H]3COP(=O)(O)O[C@H]4C[C@H](Oc5ccncn5)C[C@@H]4COP(=O)(O)O[C@@H]2[C@@H]3O)c(=O)[nH]1` [Compound I-10, 2-amino-9-[(5R,7R,8R,12aR,14R,15aS,16R)-2,10,16-trihydroxy-2,10-dioxido-14-(pyrimidin-4-yloxy)decahydro-5,8-methanocyclopenta[1][1,3,6,9,11,2,10]pentaoxadiphosphacyclotetradecin-7-yl]-1,9-dihydro-6H-purin-6-one]: 1000 to 10000 nM and below 1000 nM.
On to `Nc1nc2c(ncn2[C@@H]2O[C@@H]3COP(=O)(S)O[C@H]4C[C@H](Oc5ccncn5)C[C@@H]4COP(=O)(O)O[C@@H]2[C@@H]3O)c(=O)[nH]1` (stereo partly drawn) [Compound I-17, 2-amino-9-[(2S,5R,7R,8R,12aR,14R,15aS,16R)-10,16-dihydroxy-2,10-dioxido-14-(pyrimidin-4-yloxy)-2-sulfanyldecahydro-5,8-methanocyclopenta[1][1,3,6,9,11,2,10]pentaoxadiphosphacyclotetradecin-7-yl]-1,9-dihydro-6H-purin-6-one], for which, in assay [1] (Homo sapiens, THP1-Dual, 20 h), the EC50 lay within 1000 to 10000 nM. In addition, in assay [2], the IC50 is below 1000 nM.
The matching figures for `Nc1nc2c(ncn2[C@@H]2O[C@@H]3COP(=O)(S)O[C@H]4C[C@H](Nc5ccncn5)C[C@@H]4COP(=O)(O)O[C@@H]2[C@@H]3O)c(=O)[nH]1` (stereo partly drawn) [Compound I-18, 2-amino-9-[(2S,5R,7R,8R,12aR,14R,15aS,16R)-10,16-dihydroxy-2,10-dioxido-14-(pyrimidin-4-ylamino)-2-sulfanyldecahydro-5,8-methanocyclopenta[1][1,3,6,9,11,2,10]pentaoxadiphosphacyclotetradecin-7-yl]-1,9-dihydro-6H-purin-6-one]: 1000 to 10000 nM and below 1000 nM.
The matching figures for `Nc1nc2c(ncn2[C@@H]2O[C@@H]3COP(=O)(S)O[C@@H]4[C@@H](COP(=O)(O)O[C@@H]2[C@@H]3F)C[C@@H](Nc2ccncn2)[C@@H]4F)c(=O)[nH]1` (stereo partly drawn) [Compound I-21, 2-amino-9-[(2S,5R,7R,8S,12aR,14R,15S,15aR,16R)-15,16-difluoro-10-hydroxy-2,10-dioxido-14-(pyrimidin-4-ylamino)-2-sulfanyldecahydro-5,8-methanocyclopenta[1][1,3,6,9,11,2,10]pentaoxadiphosphacyclotetradecin-7-yl]-1,9-dihydro-6H-purin-6-one]: 1000 to 10000 nM and below 1000 nM.
The matching figures for `Nc1nc2c(ncn2[C@@H]2O[C@@H]3COP(=O)(O)O[C@@H]4[C@@H](COP(=O)(S)O[C@@H]2[C@@H]3F)C[C@@H](Nc2ccncn2)[C@@H]4F)c(=O)[nH]1` (stereo partly drawn) [Compound I-24a, 2-amino-9-[(5R,7R,8S,10S,12aR,14R,15S,15aR,16R)-15,16-difluoro-2-hydroxy-2,10-dioxido-14-(pyrimidin-4-ylamino)-10-sulfanyldecahydro-5,8-methanocyclopenta[1][1,3,6,9,11,2,10]pentaoxadiphosphacyclotetradecin-7-yl]-1,9-dihydro-6H-purin-6-one]: 1000 to 10000 nM and below 1000 nM.
In the case of `Nc1nc2c(ncn2[C@@H]2O[C@@H]3COP(=O)(O)O[C@H]4C[C@H](Nc5ncncn5)C[C@@H]4COP(=O)(O)O[C@@H]2[C@@H]3O)c(=O)[nH]1` [Compound I-27, 2-amino-9-[(5R,7R,8R,12aR,14R,15aS,16R)-2,10,16-trihydroxy-2,10-dioxido-14-(1,3,5-triazin-2-ylamino)decahydro-5,8-methanocyclopenta[1][1,3,6,9,11,2,10]pentaoxadiphosphacyclotetradecin-7-yl]-1,9-dihydro-6H-purin-6-one], the EC50 in assay [1] (Homo sapiens, THP1-Dual, 20 h) lay within 10000 to 25000 nM. The IC50 in assay [2] is below 1000 nM.
The matching figures for `Nc1nc2c(ncn2[C@@H]2O[C@@H]3COP(=O)(S)O[C@H]4C[C@H](Nc5ncncc5F)C[C@@H]4COP(=O)(S)O[C@@H]2[C@@H]3O)c(=O)[nH]1` (stereo partly drawn) [Compound I-34a, 2-amino-9-{(2S,5R,7R,8R,10S,12aR,14R,15aS,16R)-14-[(5-fluoropyrimidin-4-yl)amino]-16-hydroxy-2,10-dioxido-2,10-disulfanyldecahydro-5,8-methanocyclopenta[1][1,3,6,9,11,2,10]pentaoxadiphosphacyclotetradecin-7-yl}-1,9-dihydro-6H-purin-6-one]: below 1000 nM and below 1000 nM.
In the case of `Nc1nc2c(ncn2[C@@H]2O[C@@H]3COP(=O)(S)O[C@H]4C[C@H](Nc5ncncc5F)C[C@@H]4COP(=O)(S)O[C@@H]2[C@@H]3O)c(=O)[nH]1` (stereo partly drawn) [Compound I-34b, 2-amino-9-{(2S,5R,7R,8R,10S,12aR,14R,15aS,16R)-14-[(5-fluoropyrimidin-4-yl)amino]-16-hydroxy-2,10-dioxido-2,10-disulfanyldecahydro-5,8-methanocyclopenta [1][1,3,6,9,11,2,10]pentaoxadiphosphacyclotetradecin-7-yl}-1,9-dihydro-6H-purin-6-one], the EC50 in assay [1] lay within 1000 to 10000 nM. Also, the IC50 in assay [2] is below 1000 nM.
Regarding `Nc1nc2c(ncn2[C@@H]2O[C@@H]3COP(=O)(S)O[C@@H]4[C@@H](COP(=O)(S)O[C@@H]2[C@@H]3F)C[C@@H](Nc2ccncn2)[C@@H]4F)c(=O)[nH]1` (stereo partly drawn) [Compound I-38a, 2-amino-9-[(2S,5R,7R,8S,10S,12aR,14R,15S,15aR,16R)-15,16-difluoro-2,10-dioxido-14-(pyrimidin-4-ylamino)-2,10-disulfanyldecahydro-5,8-methanocyclopenta[1][1,3,6,9,11,2,10]pentaoxadiphosphacyclotetradecin-7-yl]-1,9-dihydro-6H-purin-6-one], the EC50 in assay [1] (Homo sapiens, THP1-Dual, 20 h) lay within 1000 to 10000 nM. Besides, the IC50 in assay [2] is below 1000 nM.
The matching figures for `Nc1nc2c(ncn2[C@@H]2O[C@@H]3COP(=O)(O)O[C@@H]4[C@@H](COP(=O)(O)O[C@@H]2[C@@H]3O)C[C@@H](Nc2ncncn2)[C@@H]4F)c(=O)[nH]1` [Compound I-40, 2-amino-9-[(5R,7R,8R,12aR,14R,15S,15aR,16R)-15-fluoro-2,10,16-trihydroxy-2,10-dioxido-14-(1,3,5-triazin-2-ylamino)decahydro-5,8-methanocyclopenta[1][1,3,6,9,11,2,10]pentaoxadiphosphacyclotetradecin-7-yl]-1,9-dihydro-6H-purin-6-one]: 10000 to 25000 nM and below 1000 nM.
The matching figures for `Nc1nc2c(ncn2[C@@H]2O[C@@H]3COP(=O)(O)O[C@@H]4[C@@H](COP(=O)(O)O[C@@H]2[C@@H]3O)C[C@@H](Nc2ccncn2)[C@@H]4F)c(=O)[nH]1` [Compound I-46, 2-amino-9-[(5R,7R,8R,12aR,14R,15S,15aR,16R)-15-fluoro-2,10,16-trihydroxy-2,10-dioxido-14-(pyrimidin-4-ylamino)decahydro-5,8-methanocyclopenta[1][1,3,6,9,11,2,10]pentaoxadiphosphacyclotetradecin-7-yl]-1,9-dihydro-6H-purin-6-one]: 10000 to 25000 nM and below 1000 nM.

The values are drawn from patent US11542293B2, “Sting modulator compounds, and methods of making and using” (Takeda Pharmaceutical Company Limited, priority 2017, dated 2023).
